Results reported in PubChem BioAssay AID330 (DTP/NCI, 2004).
Where “and” joins values, the source holds several entries; their conditions need not be identical. Identical values can stand only once. Inconclusive results and toxic doses are left out.

System: P388 leukemia ip, CD2F1 mice, survival T/C
Assay: NCI In Vivo Anticancer Drug Screen. Data for tumor model P388 Leukemia (intraperitoneal) in CD2F1 (CDF1) mice
Settings: endpoint: median survival time, higher = longer survival
Procedure, shortened: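 Mice carrying the transplanted tumor received test compound or vehicle. Survival was recorded in each group, and the value is the treated-group measurement divided by that of the vehicle-treated control group.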

[1] = dose: 200.0 mg/kg/injection, schedule: Q01DX009 (ip), vehicle: saline
[2] = dose: 12.5 mg/kg/injection, schedule: Q01DX005 (ip), vehicle: saline with Tween-80
[3] = dose: 25.0 mg/kg/injection, schedule: Q01DX005 (ip), vehicle: saline with Tween-80
[4] = dose: 50.0 mg/kg/injection, schedule: Q01DX005 (ip), vehicle: saline with Tween-80
[5] = dose: 100.0 mg/kg/injection, schedule: Q04DX003 (ip), vehicle: saline
[6] = dose: 200.0 mg/kg/injection, schedule: Q04DX003 (ip), vehicle: saline
[7] = dose: 400.0 mg/kg/injection, schedule: Q04DX003 (ip), vehicle: saline
[8] = dose: 50.0 mg/kg/injection, schedule: Q01DX009 (ip), vehicle: saline with Tween-80
[9] = dose: 100.0 mg/kg/injection, schedule: Q01DX009 (ip), vehicle: saline with Tween-80
[10] = dose: 200.0 mg/kg/injection, schedule: Q01DX009 (ip), vehicle: saline with Tween-80

**Q.** What does the source list for OC1(C2(O)CCCC2)CCCC1?
**A.** T/C (dose: 100.0 mg/kg/injection, schedule: Q04DX003 (ip), vehicle: saline with Tween-80): 100 % of control; T/C (dose: 200.0 mg/kg/injection, schedule: Q04DX003 (ip), vehicle: saline with Tween-80): 104 % of control; T/C (dose: 400.0 mg/kg/injection, schedule: Q04DX003 (ip), vehicle: saline with Tween-80): 95 % of control

**Q.** With CCCCCCCCCCCCCCCC[N+]1(CC)CCOCC1 as the compound, how does the T/C (dose: 1.56 mg/kg/injection, schedule: Q01DX009 (ip), vehicle: saline) read?
**A.** 105 % of control and 100 % of control

**Q.** And the T/C (dose: 3.12 mg/kg/injection, schedule: Q01DX009 (ip), vehicle: saline)?
**A.** 99 % of control

**Q.** And the T/C (dose: 12.5 mg/kg/injection, schedule: Q01DX009 (ip), vehicle: saline)?
**A.** 115 % of control and 105 % of control

**Q.** What does the source list for CC1C(O)CC23COC(=O)C2=CCCC3C1(C)CCC1=CC(=O)OC1 (stereo unspecified)?
**A.** T/C (dose: 8.75 mg/kg/injection, schedule: Q01DX005 (ip), vehicle: Klucel (hydroxypropylcellulose) (HPC)): 101 % of control; T/C (dose: 17.5 mg/kg/injection, schedule: Q01DX005 (ip), vehicle: Klucel (hydroxypropylcellulose) (HPC)): 106 % of control; T/C (dose: 35.0 mg/kg/injection, schedule: Q01DX005 (ip), vehicle: Klucel (hydroxypropylcellulose) (HPC)): 92 % of control; T/C (dose: 70.0 mg/kg/injection, schedule: Q01DX005 (ip), vehicle: Klucel (hydroxypropylcellulose) (HPC)): 97 % of control

**Q.** With CC1CCC(C)(C(O)c2ccc(C(O)C3(C)CCC(C)C3(C)C)cc2)C1(C)C (stereo unspecified) as the compound, how does the T/C (dose: 50.0 mg/kg/injection, schedule: Q01DX009 (ip), vehicle: saline) read?
**A.** 86 % of control

**Q.** What about the T/C (dose: 50.0 mg/kg/injection, schedule: Q01DX009 (ip), vehicle: suspension in saline) of the same compound?
**A.** 92 % of control

**Q.** And the T/C (dose: 100.0 mg/kg/injection, schedule: Q01DX009 (ip), vehicle: suspension in saline)?
**A.** 91 % of control

**Q.** And the T/C [1]?
**A.** 89 % of control

**Q.** What does the source list for O=C(OC(c1ccccc1)(C(F)(F)F)C(F)(F)F)c1ccc(Cl)cc1?
**A.** T/C (dose: 100.0 mg/kg/injection, schedule: Q04DX002 (ip), vehicle: Klucel (hydroxypropylcellulose) (HPC)): 92 % of control; T/C (dose: 200.0 mg/kg/injection, schedule: Q04DX002 (ip), vehicle: Klucel (hydroxypropylcellulose) (HPC)): 98 % of control; T/C (dose: 400.0 mg/kg/injection, schedule: Q04DX002 (ip), vehicle: Klucel (hydroxypropylcellulose) (HPC)): 97 % of control

**Q.** With CCN(CC)CCOCCc1ccccc1 as the compound, how does the T/C [2] read?
**A.** 98 % of control

**Q.** And the T/C [3]?
**A.** 98 % of control

**Q.** What about the T/C [4] of the same compound?
**A.** 98 % of control and 100 % of control

**Q.** Which results are given for Cc1ccccc1C(=Nc1ccccc1)Oc1ccccc1[N+](=O)[O-]?
**A.** T/C [5]: 100 % of control; T/C [6]: 100 % of control; T/C [7]: 100 % of control

**Q.** For Cc1cnc(C(N)=O)c(=O)[nH]1, which T/C (dose: 100.0 mg/kg/injection, schedule: Q01DX009 (ip), vehicle: saline) is on record?
**A.** 95 % of control

**Q.** And the T/C [5]?
**A.** 105 % of control

**Q.** And the T/C [1]?
**A.** 100 % of control

**Q.** What about the T/C [6] of the same compound?
**A.** 100 % of control

**Q.** And the T/C (dose: 400.0 mg/kg/injection, schedule: Q01DX009 (ip), vehicle: saline)?
**A.** 100 % of control

**Q.** What about the T/C [7] of the same compound?
**A.** 100 % of control

**Q.** What does the source list for O=C(CN1C(=O)c2cccc3c(Br)ccc(c23)C1=O)c1ccc(F)cc1?
**A.** T/C [4]: 87 % of control; T/C (dose: 100.0 mg/kg/injection, schedule: Q01DX005 (ip), vehicle: saline with Tween-80): 103 % of control; T/C (dose: 200.0 mg/kg/injection, schedule: Q01DX005 (ip), vehicle: saline with Tween-80): 89 % of control

**Q.** Which results are given for CC1(C)CN(C(C)(C)C)CN2C1OCC2(C)C (stereo unspecified)?
**A.** T/C [8]: 101 % of control; T/C [9]: 112 % of control; T/C [10]: 112 % of control

**Q.** For O=C(/C=C/c1ccc(Cl)c(Cl)c1)c1ccccc1, which T/C [10] is on record?
**A.** 100 % of control

**Q.** How did the T/C (dose: 6.25 mg/kg/injection, schedule: Q04DX003 (ip), vehicle: other) turn out when COC1/C=C\OC2(C)Oc3c(C)c(O)c4c(c3C2=O)C(=O)C=C(NC(=O)C(C)=C/C=C\C(C)C(=O)C(C)C2OC(C)(C)OC(C1C)C2C)C4=O (stereo unspecified) was run?
**A.** 100 % of control

**Q.** And the T/C (dose: 12.5 mg/kg/injection, schedule: Q04DX003 (ip), vehicle: distilled water + Tween-80)?
**A.** 106 % of control and 110 % of control

**Q.** And the T/C (dose: 12.5 mg/kg/injection, schedule: Q04DX003 (ip), vehicle: other)?
**A.** 107 % of control

**Q.** What about the T/C (dose: 25.0 mg/kg/injection, schedule: Q04DX003 (ip), vehicle: distilled water + Tween-80) of the same compound?
**A.** 101 % of control and 121 % of control

**Q.** What about the T/C (dose: 25.0 mg/kg/injection, schedule: Q04DX003 (ip), vehicle: other) of the same compound?
**A.** 156 % of control

**Q.** What about the T/C (dose: 50.0 mg/kg/injection, schedule: Q04DX003 (ip), vehicle: distilled water + Tween-80) of the same compound?
**A.** 91 % of control and 95 % of control

**Q.** What about the T/C (dose: 50.0 mg/kg/injection, schedule: Q04DX003 (ip), vehicle: other) of the same compound?
**A.** 108 % of control

**Q.** And the T/C (dose: 100.0 mg/kg/injection, schedule: Q04DX003 (ip), vehicle: distilled water + Tween-80)?
**A.** 103 % of control and 97 % of control

**Q.** What about the T/C (dose: 100.0 mg/kg/injection, schedule: Q04DX003 (ip), vehicle: other) of the same compound?
**A.** 118 % of control

**Q.** And the T/C (dose: 200.0 mg/kg/injection, schedule: Q04DX003 (ip), vehicle: distilled water + Tween-80)?
**A.** 113 % of control and 117 % of control

**Q.** How did the T/C (dose: 75.0 mg/kg/injection, schedule: Q01DX009 (ip), vehicle: saline with Tween-80) turn out when C/C(=N/NC(=O)CCl)c1ccccc1 was run?
**A.** 108 % of control

**Q.** CSc1nc(=O)c(=O)nc(Nc2ccccc2)n1-c1ccccc1 was tested. Which T/C [8] did it give?
**A.** 86 % of control

**Q.** What about the T/C [10] of the same compound?
**A.** 87 % of control

**Q.** What does the source list for CCN(CC)CCCNc1nccc2ccc(OC)cc12?
**A.** T/C (dose: 50.0 mg/kg/injection, schedule: Q01DX005 (ip), vehicle: saline): 99 % of control; T/C (dose: 100.0 mg/kg/injection, schedule: Q01DX005 (ip), vehicle: saline): 99 % of control; T/C (dose: 200.0 mg/kg/injection, schedule: Q01DX005 (ip), vehicle: saline): 97 % of control

**Q.** Which T/C (dose: 50.0 mg/kg/injection, schedule: Q01DX005 (ip), vehicle: Klucel (hydroxypropylcellulose) (HPC)) does the source give for O=C(O)c1c2ccccc2nc2[nH]c(=O)[nH]c(=O)c12 here?
**A.** 114 % of control and 95 % of control

**Q.** And the T/C (dose: 50.0 mg/kg/injection, schedule: Q01DX005 (ip), vehicle: Klucel + Tween-80)?
**A.** 117 % of control

**Q.** What about the T/C (dose: 100.0 mg/kg/injection, schedule: Q01DX005 (ip), vehicle: Klucel (hydroxypropylcellulose) (HPC)) of the same compound?
**A.** 107 % of control and 95 % of control

**Q.** And the T/C (dose: 100.0 mg/kg/injection, schedule: Q01DX005 (ip), vehicle: Klucel + Tween-80)?
**A.** 107 % of control

**Q.** What about the T/C (dose: 200.0 mg/kg/injection, schedule: Q01DX005 (ip), vehicle: Klucel (hydroxypropylcellulose) (HPC)) of the same compound?
**A.** 114 % of control

**Q.** And the T/C (dose: 200.0 mg/kg/injection, schedule: Q01DX005 (ip), vehicle: Klucel + Tween-80)?
**A.** 117 % of control

**Q.** What does the source list for NC(N)=NCC(NS(=O)(=O)c1ccccc1)C(=O)O (stereo unspecified)?
**A.** T/C (dose: 50.0 mg/kg/injection, schedule: Q01DX009 (ip), vehicle: Klucel (hydroxypropylcellulose) (HPC)): 111 % of control; T/C (dose: 100.0 mg/kg/injection, schedule: Q01DX009 (ip), vehicle: Klucel (hydroxypropylcellulose) (HPC)): 111 % of control; T/C (dose: 200.0 mg/kg/injection, schedule: Q01DX009 (ip), vehicle: Klucel (hydroxypropylcellulose) (HPC)): 104 % of control

**Q.** How did the T/C (dose: 50.0 mg/kg/injection, schedule: Q01DX001 (ip), vehicle: Klucel (hydroxypropylcellulose) (HPC)) turn out when O=C(Oc1ccccc1)OC1CCN(C(=O)Oc2ccccc2)CC1 was run?
**A.** 100 % of control

**Q.** And the T/C (dose: 100.0 mg/kg/injection, schedule: Q01DX001 (ip), vehicle: Klucel (hydroxypropylcellulose) (HPC))?
**A.** 102 % of control

**Q.** What about the T/C (dose: 200.0 mg/kg/injection, schedule: Q01DX001 (ip), vehicle: Klucel (hydroxypropylcellulose) (HPC)) of the same compound?
**A.** 100 % of control

**Q.** What about the T/C (dose: 400.0 mg/kg/injection, schedule: Q01DX001 (ip), vehicle: Klucel (hydroxypropylcellulose) (HPC)) of the same compound?
**A.** 100 % of control

**Q.** Which results are given for NNC(=O)c1ccc(OCc2nc3ccccc3[nH]2)cc1?
**A.** T/C (dose: 3.12 mg/kg/injection, schedule: Q01DX005 (ip), vehicle: saline with Tween-80): 100 % of control; T/C (dose: 6.25 mg/kg/injection, schedule: Q01DX005 (ip), vehicle: saline with Tween-80): 100 % of control; T/C [2]: 98 % of control; T/C [3]: 94 % of control

**Q.** What does the source list for CC(=O)OC[N+]1(C)CCCCC1?
**A.** T/C [8]: 111 % of control; T/C [9]: 106 % of control; T/C [10]: 116 % of control

**Q.** For CCOC(=O)c1[nH]c(=O)[nH]c(=O)c1CBr, which T/C (dose: 12.5 mg/kg/injection, schedule: Q01DX009 (ip), vehicle: distilled water + Tween-80) is on record?
**A.** 98 % of control

**Q.** And the T/C (dose: 25.0 mg/kg/injection, schedule: Q01DX009 (ip), vehicle: distilled water + Tween-80)?
**A.** 98 % of control

**Q.** And the T/C (dose: 50.0 mg/kg/injection, schedule: Q01DX009 (ip), vehicle: distilled water + Tween-80)?
**A.** 98 % of control

**Q.** What about the T/C (dose: 100.0 mg/kg/injection, schedule: Q01DX009 (ip), vehicle: distilled water + Tween-80) of the same compound?
**A.** 98 % of control
